From the NIST ThermoML archive (doi:10.1016/j.jct.2004.11.001)
Numbers after ± are expanded uncertainties.

Details: Liquid; for speed of sound: non intrusive technique with two piezoelectric transducers based on the time of flight

[2H]C([2H])([2H])C(=O)C([2H])([2H])[2H] [(D6)-2-propanone]
speed of sound (288.2 K, 100 kPa): 1110.6 ± 4.5 m/s | speed of sound (288.2 K, 5020 kPa): 1140.7 ± 4.6 m/s | speed of sound (288.2 K, 10060 kPa): 1168.2 ± 4.7 m/s | speed of sound (288.2 K, 20010 kPa): 1218.6 ± 4.9 m/s | speed of sound (288.2 K, 30090 kPa): 1264.4 ± 5.1 m/s | speed of sound (288.2 K, 40050 kPa): 1302.9 ± 5.2 m/s | speed of sound (288.2 K, 49940 kPa): 1345.4 ± 5.4 m/s | speed of sound (288.2 K, 60000 kPa): 1382.2 ± 5.5 m/s | speed of sound (288.2 K, 70020 kPa): 1417.2 ± 5.7 m/s | speed of sound (288.2 K, 80060 kPa): 1450.1 ± 5.8 m/s | speed of sound (288.2 K, 90030 kPa): 1481.9 ± 5.9 m/s | speed of sound (288.2 K, 100110 kPa): 1512.5 ± 6.1 m/s | speed of sound (288.2 K, 110100 kPa): 1540.4 ± 6.2 m/s | speed of sound (288.2 K, 120100 kPa): 1568.3 ± 6.3 m/s | speed of sound (288.2 K, 130120 kPa): 1595.5 ± 6.4 m/s | speed of sound (288.2 K, 140000 kPa): 1620.6 ± 6.5 m/s | speed of sound (288.2 K, 150150 kPa): 1640.3 ± 6.6 m/s | speed of sound (288.2 K, 160030 kPa): 1664 ± 6.7 m/s | mass density (298.15 K, 100 kPa): 868 ± 0.22 kg/m3 | mass density (298.15 K, 5000 kPa): 873.51 ± 0.24 kg/m3 | mass density (298.15 K, 9920 kPa): 878.81 ± 0.25 kg/m3 | mass density (298.15 K, 14840 kPa): 883.83 ± 0.27 kg/m3 | mass density (298.15 K, 19760 kPa): 888.58 ± 0.29 kg/m3 | mass density (298.15 K, 24670 kPa): 893.11 ± 0.31 kg/m3 | mass density (298.15 K, 29590 kPa): 897.46 ± 0.33 kg/m3 | mass density (298.15 K, 34510 kPa): 901.62 ± 0.35 kg/m3 | mass density (298.15 K, 39430 kPa): 905.63 ± 0.38 kg/m3 | mass density (298.15 K, 44340 kPa): 909.51 ± 0.4 kg/m3 | mass density (298.15 K, 49260 kPa): 913.26 ± 0.42 kg/m3 | mass density (298.15 K, 54180 kPa): 916.86 ± 0.44 kg/m3 | mass density (298.15 K, 59100 kPa): 920.33 ± 0.47 kg/m3 | speed of sound (298.25 K, 100 kPa): 1071.6 ± 4.3 m/s | speed of sound (298.25 K, 5080 kPa): 1103.4 ± 4.4 m/s | speed of sound (298.25 K, 10170 kPa): 1131.8 ± 4.5 m/s | speed of sound (298.25 K, 20270 kPa): 1183.7 ± 4.8 m/s | speed of sound (298.25 K, 30000 kPa): 1229.6 ± 4.9 m/s | speed of sound (298.25 K, 40010 kPa): 1272.1 ± 5.1 m/s | speed of sound (298.25 K, 50020 kPa): 1312 ± 5.3 m/s | speed of sound (298.25 K, 60450 kPa): 1350.7 ± 5.4 m/s | speed of sound (298.25 K, 70020 kPa): 1383.8 ± 5.6 m/s | speed of sound (298.25 K, 80010 kPa): 1416.9 ± 5.7 m/s | speed of sound (298.25 K, 90200 kPa): 1443.5 ± 5.8 m/s | speed of sound (298.25 K, 100040 kPa): 1478.7 ± 5.9 m/s | speed of sound (298.25 K, 110070 kPa): 1507.6 ± 6.1 m/s | speed of sound (298.25 K, 120040 kPa): 1535.4 ± 6.2 m/s | speed of sound (298.25 K, 130020 kPa): 1561.1 ± 6.3 m/s | speed of sound (298.25 K, 140020 kPa): 1586.5 ± 6.4 m/s | speed of sound (298.25 K, 150120 kPa): 1611.2 ± 6.5 m/s | speed of sound (298.25 K, 159970 kPa): 1634.8 ± 6.6 m/s | mass density (303.16 K, 100 kPa): 861.61 ± 0.22 kg/m3 | mass density (303.16 K, 5000 kPa): 867.3 ± 0.23 kg/m3 | mass density (303.16 K, 9920 kPa): 872.78 ± 0.25 kg/m3 | mass density (303.16 K, 14840 kPa): 877.94 ± 0.27 kg/m3 | mass density (303.16 K, 19760 kPa): 882.84 ± 0.29 kg/m3 | mass density (303.16 K, 24670 kPa): 887.5 ± 0.31 kg/m3 | mass density (303.16 K, 29590 kPa): 891.96 ± 0.33 kg/m3 | mass density (303.16 K, 34510 kPa): 896.23 ± 0.35 kg/m3 | mass density (303.16 K, 39430 kPa): 900.35 ± 0.38 kg/m3 | mass density (303.16 K, 44340 kPa): 904.3 ± 0.4 kg/m3 | mass density (303.16 K, 49260 kPa): 908.1 ± 0.42 kg/m3 | mass density (303.16 K, 54180 kPa): 911.79 ± 0.44 kg/m3 | mass density (303.16 K, 59100 kPa): 915.34 ± 0.47 kg/m3 | mass density (308.2 K, 100 kPa): 855.39 ± 0.22 kg/m3 | mass density (308.2 K, 5000 kPa): 861.42 ± 0.23 kg/m3 | mass density (308.2 K, 9920 kPa): 867.11 ± 0.25 kg/m3 | mass density (308.2 K, 14840 kPa): 872.49 ± 0.27 kg/m3 | mass density (308.2 K, 19760 kPa): 877.58 ± 0.29 kg/m3 | mass density (308.2 K, 24670 kPa): 882.42 ± 0.31 kg/m3 | mass density (308.2 K, 29590 kPa): 887.02 ± 0.33 kg/m3 | mass density (308.2 K, 34510 kPa): 891.38 ± 0.35 kg/m3 | mass density (308.2 K, 39430 kPa): 895.65 ± 0.38 kg/m3 | mass density (308.2 K, 44340 kPa): 899.72 ± 0.4 kg/m3 | mass density (308.2 K, 49260 kPa): 903.62 ± 0.42 kg/m3 | mass density (308.2 K, 54180 kPa): 907.33 ± 0.44 kg/m3 | mass density (308.2 K, 59100 kPa): 910.94 ± 0.47 kg/m3 | speed of sound (308.22 K, 100 kPa): 1033.3 ± 4.2 m/s | speed of sound (308.22 K, 5040 kPa): 1063.2 ± 4.3 m/s | speed of sound (308.22 K, 10000 kPa): 1093.5 ± 4.4 m/s | speed of sound (308.22 K, 20090 kPa): 1147.9 ± 4.6 m/s | speed of sound (308.22 K, 29990 kPa): 1196.3 ± 4.8 m/s | speed of sound (308.22 K, 40040 kPa): 1240.8 ± 5 m/s | speed of sound (308.22 K, 50090 kPa): 1281.7 ± 5.1 m/s | speed of sound (308.22 K, 60060 kPa): 1319.5 ± 5.3 m/s | speed of sound (308.22 K, 70070 kPa): 1355 ± 5.4 m/s | speed of sound (308.22 K, 80090 kPa): 1388.6 ± 5.6 m/s | speed of sound (308.22 K, 89970 kPa): 1420.3 ± 5.7 m/s | speed of sound (308.22 K, 100070 kPa): 1450.8 ± 5.8 m/s | speed of sound (308.22 K, 110070 kPa): 1479.7 ± 5.9 m/s | speed of sound (308.22 K, 120060 kPa): 1507.5 ± 6.1 m/s | speed of sound (308.22 K, 130120 kPa): 1534.3 ± 6.2 m/s | speed of sound (308.22 K, 140080 kPa): 1559.4 ± 6.3 m/s | speed of sound (308.22 K, 150120 kPa): 1584 ± 6.4 m/s | speed of sound (308.22 K, 160000 kPa): 1607.2 ± 6.5 m/s | mass density (313.21 K, 100 kPa): 848.68 ± 0.22 kg/m3 | mass density (313.21 K, 5000 kPa): 855 ± 0.23 kg/m3 | mass density (313.21 K, 9920 kPa): 860.92 ± 0.25 kg/m3 | mass density (313.21 K, 14840 kPa): 866.48 ± 0.27 kg/m3 | mass density (313.21 K, 19760 kPa): 871.75 ± 0.29 kg/m3 | mass density (313.21 K, 24670 kPa): 876.72 ± 0.31 kg/m3 | mass density (313.21 K, 29590 kPa): 881.49 ± 0.33 kg/m3 | mass density (313.21 K, 34510 kPa): 886.02 ± 0.35 kg/m3 | mass density (313.21 K, 39430 kPa): 890.35 ± 0.38 kg/m3 | mass density (313.21 K, 44340 kPa): 894.51 ± 0.4 kg/m3 | mass density (313.21 K, 49260 kPa): 898.52 ± 0.42 kg/m3 | mass density (313.21 K, 54180 kPa): 902.37 ± 0.44 kg/m3
